Assay results: ChEMBL document CHEMBL3507680, “University of Dundee, Gates Library screen for HepG2 cell viability”

Assay: Human HepG2 cell viability assay in 384 well format
Format: toxicity, cell-based
Set-up: dose 125 nL, time 70.5 hour; cytotoxicity at 70.5 h: concentration not given beside the values
Details: HepG2 cells, read-out: Inhibition

Compound	cytotoxicity at 70.5 h [%]
CC(C)N1CCc2onc(Cn3cccn3)c2C1	-5.3
CCOC[C@@H]1CC[C@H]2[C@H](CCN2S(=O)(=O)Cc2ccccc2)O1	10.7
COC[C@@H]1CC[C@H]2[C@H](CCN2S(=O)(=O)Cc2ccccc2)O1	-1.62
CCOC[C@H]1CC[C@H]2[C@H](CCN2S(=O)(=O)Cc2ccccc2)O1	-1.8
CCN(CC)[C@H]1COC[C@@H]2CN(Cc3cnn(C)c3)C[C@@H]21	-3.13
CCS(=O)(=O)NCC1OCCc2cn(CC3CCOCC3)nc21 (stereo not given)	11.8
Cc1cnc(N2CCC3(CC2)CC(NC(=O)C(C)C)CO3)nc1 (stereo not given)	11.3
CS(=O)(=O)NCC1OCCc2cn(CC3CC3)nc21 (stereo not given)	13
CN(C)S(=O)(=O)NCC1OCCc2cn(CC3CCOCC3)nc21 (stereo not given)	13.8
CN(C)S(=O)(=O)N1CC[C@]2(C[C@@H](OCC3CC3)CO2)C1	0.733
CN(C)Cc1cc(=O)n2c(n1)CN(CC1CC1)CCC2	-6.12
CCn1cc2c(n1)C(COC)CN(Cc1ccoc1)C2 (stereo not given)	-15.1
CCS(=O)(=O)N1CCOC2(COCCN(c3nccs3)C2)C1 (stereo not given)	-8.91
Fc1cccc(N2CCOC3(CCCN(c4cnccn4)C3)C2)c1 (stereo not given)	-7.3
CCS(=O)(=O)N1Cc2ccnn2CC(c2nc(C)no2)C1 (stereo not given)	-9.51
O=S(=O)(C1CC1)N1CC[C@]2(C[C@@H](OCC3CCOCC3)CO2)C1	-9.4
CN1C[C@@H]2COC[C@]2(C(=O)NCc2cccs2)C1	13.4
Cc1ccsc1C(=O)N1CCCn2nnc(Cn3cccn3)c2C1	9.85
O=C(c1ccno1)N1CCC2(CC1)C(=O)Nc1ccccc12	-6.37
c1cncc(COCC2CN(Cc3ccsc3)Cc3ccnn3C2)c1 (stereo not given)	-4.42
CCc1nn(-c2cc(Oc3cc(C)ccc3C)ncn2)c(N)c1C#N	-1.76
O=C(Cn1nc(Br)nc1Br)N1CCCCC1	-3.74

Compound	cytotoxicity at 70.5 h [%]
CCCc1ccc(N2CCN(Cc3nc4ccccc4n3C)CC2)cc1	19.9
Cc1cnc(N2C(=O)CSC2c2ccc(F)cc2)s1 (stereo not given)	-5.25
Cc1cnc(N2C(=O)CSC2c2ccc(N(C)C)cc2)s1 (stereo not given)	-8.63
COc1cc2ncn(CC(=O)NCCCN(C)C)c(=O)c2cc1OC	-6.49
CC(=O)c1cn(CCC(=O)N[C@H](C(=O)O)C(C)C)c2ccccc12	-4
COc1cccc(-c2nc(C)c(C(=O)N[C@@H](C)C(=O)O)s2)c1	4.53
COc1cc2nc(C)n(CC(=O)NCCCN(C)C)c(=O)c2cc1OC	6.18
O=C(NCCN1CCNCC1)c1c(O)c2ccccc2[nH]c1=O	36.3
CC(C)Cc1nc(OCC(=O)O)c(C#N)c2c1CCC2	3.53
CC(C)Cc1nc(OCC(N)=O)c(C#N)c2c1CCC2	14.5
CN(C)CCNC(=O)CNC(=O)N1CCc2c([nH]c3ccc(Cl)cc23)C1	45.2
CSCC[C@H](NC(=O)Cn1ccc2c(Cl)cccc21)C(=O)O	-11.9
O=C1N(c2cccc(Cl)c2)Cc2nc(=O)n(Cc3cccc(F)c3)n21	0.196
O=C(Cn1nc2c(cc1=O)CCCC2)N[C@@H](Cc1ccccc1)C(=O)O	6.84
Cc1n[nH]c2c1C(c1ccc(O)c(Cl)c1)SCC(=O)N2 (stereo not given)	1.38
O=C1CC(c2ccncc2)c2c(c(C(=O)O)cn2-c2ccc(F)cc2)N1 (stereo not given)	-6.2
CC1=Nc2c(c(=O)[nH]n2C2CCCC2)C(c2cccc(O)c2)S1 (stereo not given)	3.38
COc1cccc2c1ccn2CCNC(=O)C(C)C	-6.5
O=C(CCc1nc2cccnc2[nH]1)NCc1ccc2c(c1)OCO2	-9.32
O=C1CSC(c2cccs2)c2cnn(C3CCCC3)c2N1 (stereo not given)	-5.69
Cn1cccc1CNC(=O)CCCc1nnc2ccccn12	-3.22
COC(=O)CC(c1cnn(C)c1)c1oc(C)cc(=O)c1O (stereo not given)	7.5

Compound	cytotoxicity at 70.5 h [%]
CNC(=O)c1cc(S(=O)(=O)C(C)C)cs1	1.49
COc1ccc2c(c1)OC1(CCN(Cc3ccc(F)cc3)CC1)CC2=O	1.23
CC1(C)OCC(CNC(=O)c2cnn(-c3cc(Cl)ccc3Cl)c2N)O1 (stereo not given)	-5.2
CC(=O)N1N=C(c2ccccc2)OC1C(=O)NCCc1cccc(Cl)c1 (stereo not given)	-19.7
O=C(c1ccccn1)N1CCN(c2ccc(-c3cccnc3)nn2)CC1	-11.4
CC(C)(C)n1cc(C(=O)NCCCn2ccnc2)c2cccnc21	-4.7
Cc1ccc(C)c(C(NC(=O)C(C)(C)C)c2cccnc2)c1 (stereo not given)	-4.24
Cc1ccc(C)c(NC(=O)Nc2c[nH]c(=O)[nH]c2=O)c1	-27.8
O=C(Nc1ccc(F)cc1F)Nc1c[nH]c(=O)[nH]c1=O	-14.5
O=C(NCCN1CCOCC1)c1ccc(-n2ccc3ccccc32)s1	-8.71
COc1ccc(C2OC(COc3ccccc3Br)=NN2C(C)=O)cc1 (stereo not given)	-6.79
COc1ccc2c(c1)CC(NC(=O)NCc1cccs1)CO2 (stereo not given)	-14.1
COc1ccc(OC)c(CN2CCCCCC2c2cccs2)c1 (stereo not given)	31.6
O=C(CSc1nc2c(cnn2CCO)c(=O)[nH]1)N1CCCCCC1	13.2
CN1CCc2cc(C(CNS(=O)(=O)c3cccs3)N3CCCC3)ccc21 (stereo not given)	30.7
CC(C)c1nn(CC(=O)N2CCCCC2)c(=O)c2c1cnn2C(C)(C)C	-10.1
CCCc1cc(=O)[nH]c2nnc(SCC(=O)NCc3ccc(C)cc3)n12	-6.16
Cc1cccc(NC(=O)Cn2ncc(SCC(N)=O)c(Cl)c2=O)c1C	-13.7
O=C(c1cn(-c2cc(N3CCOCC3)ncn2)cn1)N1CCSCC1	-2
O=C(c1cn(-c2cc(N3CCSCC3)ncn2)cn1)N1CCSCC1	-1.64
O=S(=O)(NCC1CCN(c2ccccn2)CC1)c1ccccc1F	33.3
O=C(NCC1CCN(Cc2ccsc2)CC1)NC1CC1	1.34

Compound	cytotoxicity at 70.5 h [%]
CN(C)C(CNS(=O)(=O)c1ccc(F)cc1F)c1cccn1C (stereo not given)	-13.1
O=C(NCC(Cc1cccc(F)c1)N1CCCC1=O)c1cnccn1 (stereo not given)	0.835
CS(=O)(=O)N1CCC(C(=O)N2CCC3(CC2)OCCCO3)CC1	54.6
Cc1nc(NCc2nccn2C)cc(C2COCCN2)n1 (stereo not given)	-11.1
COc1cc([C@@H]2N[C@H](c3nccs3)Cc3ccsc32)cc(OC)c1OC	-0.55
Cc1nc(C(Cc2ccsc2)NC(=O)CN2CCOCC2)sc1C (stereo not given)	-4.95
Cc1nc(C(Cc2ccsc2)NC(=O)CCN2CCOCC2)sc1C (stereo not given)	-7.23
COCC(=O)N1C[C@@H](c2cc(O)nc(C)n2)[C@H](c2ccccc2F)C1	13
Cc1cc2c(=O)n(CC(=O)N3CCn4cccc4C3C(C)C)cnc2s1 (stereo not given)	-6.1
CCC1c2ccc(C)n2CCN1C(=O)Cn1cnc2sc(C)cc2c1=O (stereo not given)	-5.17
CCC(CN1CCCC1)NC(=O)C1(c2ccc(F)cc2)CC1 (stereo not given)	-7.41
CCCC(=O)N(C)Cc1nc(N2CCCC2)ncc1-c1ccncc1	-11
Cc1ncc2c(n1)C1(CCN(C(=O)C3CC3)CC1)OCC2	-9.75
Fc1ccccc1Cn1c(C2CCNCC2)cc2cccnc21	-4.77
CN(C)C(=O)CN1CCCC2(CCN(c3ccc(C#N)cn3)C2)C1 (stereo not given)	8.76
CNC(=O)[C@@H]1CC[C@@H]2[C@@H](CCN2Cc2ccccc2F)O1	-4.13
CC(C)NC(=O)[C@@H]1CC[C@@H]2[C@@H](CCN2Cc2cn(C)c3ccccc23)O1	-2.33
CN1CCc2onc(Cn3cccc3)c2C1	-0.902
CC(C)N1CCc2onc(Cn3cccc3)c2C1	-2.22
c1cnc(N2CCO[C@H]3CN(Cc4cc[nH]n4)C[C@H]32)cn1	-7.22
CC(C)NC(=O)C1CCC2(CCN(Cc3cnn(C)c3)CC2)C1 (stereo not given)	-8.81
c1cnc(N2CCO[C@H]3CN(Cc4c[nH]cn4)C[C@H]32)cn1	-5.79

Compound	cytotoxicity at 70.5 h [%]
CCS(=O)(=O)N1CCC2(CC1)COC(COc1cccnc1)C2 (stereo not given)	-10.2
CC(C)NC(=O)C1CCC2(CCN(Cc3cnn(C)c3)CC2)CO1 (stereo not given)	-17
CN(C)S(=O)(=O)N1CC[C@H]2OCC[C@@]2(COc2cccnc2)C1	-12.5
Cc1ncsc1CN1C[C@H](OCC(C)C)[C@H]2OCCC[C@H]21	-0.162
c1csc(CN2CCC3(CCCN(c4nncs4)C3)C2)n1 (stereo not given)	-1.22
Cc1ccoc1C(=O)N1C[C@@H](N2CCN(C)CC2)[C@H]2OCCC[C@H]21	-4.64
CN1CCN([C@@H]2CN(C(=O)Cc3ccsc3)[C@@H]3CCCO[C@H]23)CC1	-4.38
Fc1cnc(N2CC[C@@H]3OC(COCc4cccnc4)CC[C@@H]32)nc1 (stereo not given in full)	-4.57
CN(C)Cc1n[nH]c2c1CCN(Cc1cccs1)C2	-4.47
Cc1ccc(CN2CCc3c(CN(C)C)n[nH]c3C2)s1	-0.649
COc1ccc(CN2CCOC3(CCCN(c4cnccn4)C3)C2)cc1 (stereo not given)	-4.22
Cn1cc(C[C@H]2[C@H](N3CCOCC3)CCN2C2CCOCC2)cn1	-13.7
CNC(=O)c1cc2c(nc1NCC(C)C)CCN(CCOC)CC2	4.78
CNC(=O)c1cc2c(nc1NCC(C)C)CCN(C)CC2	0.255
CNC(=O)c1cc2c(nc1NCC(C)C)CCN(CC1CC1)CC2	-9.46
CN(C)[C@@H]1CN(Cc2cnn(C)c2)[C@@H]2COC[C@H]12	7.8
CN(C)CCNC(=O)[C@H]1C[C@H]2CN(c3ncccn3)C[C@H]2N1C	-2.47
CN1CCN([C@@H]2CCN(C3CCOCC3)[C@H]2Cc2cnn(C)c2)CC1	-6.56
CCC(CN1CCCCC1)NC(=O)C1(c2cccc(F)c2)CC1 (stereo not given)	-8.99
Cc1ccccc1-n1nc(C)c(CN(C)C(C)Cc2ccccn2)c1C (stereo not given)	0.642
COc1ccc(C2(NCc3c(C)nc4c(C)cccn34)CCCC2)cc1	-5.54
COc1ccc(CCNC(=O)C2CCC(Cn3cnnn3)CC2)cc1 (stereo not given)	-2.47
